Values joined by “and” are separate entries in the source; they are usually repeats but may differ in a detail not shown here. Equal values may be shown once.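 How tested: cells in 96-well plates exposed to compound for 48 hours at five concentrations. The concentration for 50% growth inhibition is given as GI50. TGI: concentration producing complete growth inhibition.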
Columns and labels:
Experiment in all cases: NCI anticancer screen, dose series, 48 h
SK-OV-3 ovarian = system: SK-OV-3 ovarian
SK-MEL-5 melanoma = system: SK-MEL-5 melanoma
RPMI-8226 leukemia = system: RPMI-8226 leukemia
HT29 colon = system: HT29 colon
A549 NSCLC = system: A549 NSCLC
U251 CNS = system: U251 CNS
KM12 colon = system: KM12 colon
NCI-H226 lung = system: NCI-H226 lung
M14 melanoma = system: M14 melanoma
MOLT-4 leukemia = system: MOLT-4 leukemia

Cc1c(N2C(=O)/C(=C\c3ccc(N(C)C)cc3)N=C2c2ccccc2)c(=O)n(-c2ccccc2)n1C
GI50 (SK-OV-3 ovarian): > 100 µM
TGI (SK-OV-3 ovarian): > 100 µM
GI50 (SK-MEL-5 melanoma): 36.3 µM
TGI (SK-MEL-5 melanoma): > 100 µM
GI50 (RPMI-8226 leukemia): 25.6 µM
TGI (RPMI-8226 leukemia): > 92 µM
GI50 (HT29 colon): 49.5 µM
TGI (HT29 colon): > 100 µM
GI50 (A549 NSCLC): 79.1 µM
TGI (A549 NSCLC): > 100 µM
GI50 (U251 CNS): > 92.4 µM
TGI (U251 CNS): > 100 µM
GI50 (KM12 colon): 77.8 µM
TGI (KM12 colon): > 100 µM
GI50 (NCI-H226 lung): 72.2 µM
TGI (NCI-H226 lung): > 100 µM
GI50 (M14 melanoma): > 100 µM
TGI (M14 melanoma): > 100 µM
GI50 (MOLT-4 leukemia): 7.85 µM
TGI (MOLT-4 leukemia): > 100 µM

CCOC(=O)C(Cc1ccc(OC)cc1)C(=O)OCC
GI50 (SK-OV-3 ovarian): 10.7 µM
TGI (SK-OV-3 ovarian): 55.8 µM
GI50 (SK-MEL-5 melanoma): 3.65 µM
TGI (SK-MEL-5 melanoma): 15.3 µM
GI50 (RPMI-8226 leukemia): 3.05 µM
TGI (RPMI-8226 leukemia): 14.3 µM
GI50 (HT29 colon): 4.15 µM
TGI (HT29 colon): 25.4 µM
GI50 (A549 NSCLC): 7.01 µM
TGI (A549 NSCLC): 33.7 µM
GI50 (U251 CNS): 4.79 µM
TGI (U251 CNS): 17.9 µM
GI50 (KM12 colon): 3.01 µM
TGI (KM12 colon): 9.85 µM
GI50 (NCI-H226 lung): 12.4 µM
TGI (NCI-H226 lung): 30.3 µM
GI50 (M14 melanoma): 8.17 µM
TGI (M14 melanoma): 20.7 µM
GI50 (MOLT-4 leukemia): 3.2 µM
TGI (MOLT-4 leukemia): 11 µM

O=C1CCC(=O)C(C(=O)CCC(=O)Nc2cccc(Cl)c2)C1 (stereo unspecified)
TGI (SK-OV-3 ovarian): > 100 µM
TGI (SK-MEL-5 melanoma): > 100 µM
TGI (RPMI-8226 leukemia): > 100 µM
TGI (HT29 colon): > 100 µM
TGI (A549 NSCLC): > 100 µM
TGI (U251 CNS): > 100 µM
TGI (KM12 colon): > 100 µM
TGI (NCI-H226 lung): > 100 µM
TGI (M14 melanoma): > 100 µM
TGI (MOLT-4 leukemia): > 100 µM

C[C@@H](Oc1cc(-c2cnn(C3CC4(CCCNC4)C3)c2)cnc1N)c1c(Cl)ccc(F)c1Cl (stereo partly specified)
GI50 (SK-OV-3 ovarian): 2.61 µM
TGI (SK-OV-3 ovarian): 6.96 µM
GI50 (SK-MEL-5 melanoma): 1.5 µM
TGI (SK-MEL-5 melanoma): 2.87 µM
GI50 (RPMI-8226 leukemia): 1.9 µM
TGI (RPMI-8226 leukemia): 5.05 µM
GI50 (HT29 colon): 0.607 µM
TGI (HT29 colon): 2.3 µM
GI50 (A549 NSCLC): 1.22 µM
TGI (A549 NSCLC): 4.12 µM
GI50 (U251 CNS): 1.41 µM
TGI (U251 CNS): 3.43 µM
GI50 (KM12 colon): 0.0485 µM
TGI (KM12 colon): 1.32 µM
GI50 (NCI-H226 lung): 2.29 µM
TGI (NCI-H226 lung): 9.76 µM
GI50 (M14 melanoma): 1.25 µM
TGI (M14 melanoma): 2.66 µM
GI50 (MOLT-4 leukemia): 1.22 µM
TGI (MOLT-4 leukemia): 5.46 µM

CC(=O)OCC(=O)C1(O)C(C)CC2C3C=C(C)C4=Cc5c(cnn5-c5ccccc5)CC4(C)C3C(O)CC21C (stereo unspecified)
TGI (SK-OV-3 ovarian): 5.71 µM
GI50 (SK-MEL-5 melanoma): 1.45 µM
TGI (SK-MEL-5 melanoma): 2.87 µM
GI50 (RPMI-8226 leukemia): < 0.0345 µM
GI50 (HT29 colon): 0.971 µM
TGI (HT29 colon): 2.42 µM
GI50 (A549 NSCLC): 1.34 µM
TGI (A549 NSCLC): 13.5 µM
GI50 (U251 CNS): 1 µM
TGI (U251 CNS): 3.77 µM
GI50 (KM12 colon): 1.32 µM
TGI (KM12 colon): 2.78 µM
GI50 (NCI-H226 lung): 2.16 µM
TGI (NCI-H226 lung): 11.2 µM
GI50 (M14 melanoma): 1.76 µM
TGI (M14 melanoma): 3.69 µM
GI50 (MOLT-4 leukemia): 0.753 µM
TGI (MOLT-4 leukemia): > 22 µM

O=C1c2ccccc2C(=O)c2c(NC(=O)c3ccc4c5c(ncnc35)-c3ccccc3C4=O)cccc21
TGI (SK-OV-3 ovarian): 48.2 µM
TGI (SK-MEL-5 melanoma): > 100 µM
TGI (RPMI-8226 leukemia): > 100 µM
TGI (HT29 colon): > 100 µM
TGI (A549 NSCLC): > 100 µM
TGI (U251 CNS): > 100 µM
TGI (KM12 colon): > 100 µM
TGI (NCI-H226 lung): > 100 µM
TGI (M14 melanoma): > 100 µM
TGI (MOLT-4 leukemia): > 100 µM

COC(=O)Nc1nc2ccc(Sc3ccccc3)cc2[nH]1
GI50 (SK-OV-3 ovarian): 0.179 µM
TGI (SK-OV-3 ovarian): 0.684 µM
GI50 (SK-MEL-5 melanoma): 0.146 µM
TGI (SK-MEL-5 melanoma): 4.08 µM
GI50 (RPMI-8226 leukemia): 0.358 µM
TGI (RPMI-8226 leukemia): > 36.6 µM
GI50 (HT29 colon): 0.0494 µM
TGI (HT29 colon): 1.29 µM
GI50 (A549 NSCLC): 0.208 µM
TGI (A549 NSCLC): 5.96 µM
GI50 (U251 CNS): 0.168 µM
TGI (U251 CNS): 4.37 µM
GI50 (KM12 colon): 0.0634 µM
TGI (KM12 colon): 22.3 µM
GI50 (NCI-H226 lung): 0.291 µM
TGI (NCI-H226 lung): 1.7 µM
GI50 (M14 melanoma): 0.0892 µM
TGI (M14 melanoma): 1.43 µM
GI50 (MOLT-4 leukemia): 0.262 µM

NC(=O)CCC(NC(=O)C(F)(F)F)C(=O)O (stereo unspecified)
TGI (SK-OV-3 ovarian): > 100 µM
TGI (SK-MEL-5 melanoma): > 100 µM
TGI (RPMI-8226 leukemia): > 100 µM
TGI (HT29 colon): > 100 µM
TGI (A549 NSCLC): > 100 µM
TGI (U251 CNS): > 100 µM
TGI (KM12 colon): > 100 µM
TGI (NCI-H226 lung): > 100 µM
TGI (M14 melanoma): > 100 µM
TGI (MOLT-4 leukemia): > 100 µM

O=C(NO)c1cnc(N2CCN(S(=O)(=O)c3ccc4ccccc4c3)CC2)nc1
GI50 (SK-OV-3 ovarian): 0.147 µM
TGI (SK-OV-3 ovarian): 2.33 µM
GI50 (SK-MEL-5 melanoma): 0.0396 µM
TGI (SK-MEL-5 melanoma): 0.15 µM
GI50 (RPMI-8226 leukemia): 0.0208 µM
TGI (RPMI-8226 leukemia): 17.6 µM
GI50 (HT29 colon): 0.0344 µM
TGI (HT29 colon): 2.11 µM
GI50 (A549 NSCLC): 0.0459 µM
TGI (A549 NSCLC): 0.37 µM
GI50 (U251 CNS): 0.0654 µM
TGI (U251 CNS): 0.298 µM
GI50 (KM12 colon): 0.0759 µM
TGI (KM12 colon): 0.412 µM
GI50 (NCI-H226 lung): 0.157 µM
TGI (NCI-H226 lung): 2.55 µM
GI50 (M14 melanoma): 0.0468 µM
TGI (M14 melanoma): 5.75 µM
GI50 (MOLT-4 leukemia): 0.0424 µM
TGI (MOLT-4 leukemia): > 41.3 µM

CC[C@@]1(OC(=O)CN)C(=O)OCc2c1cc1n(c2=O)Cc2cc3c(N)c4c(cc3nc2-1)OCO4
GI50 (SK-OV-3 ovarian): 0.00015 µM
TGI (SK-OV-3 ovarian): 0.148 µM
GI50 (SK-MEL-5 melanoma): 0.000182 µM
TGI (SK-MEL-5 melanoma): 0.139 µM
GI50 (RPMI-8226 leukemia): 0.00261 µM
TGI (RPMI-8226 leukemia): 0.719 µM
TGI (HT29 colon): > 100 µM
GI50 (A549 NSCLC): 0.000195 µM
TGI (A549 NSCLC): 0.233 µM and 1.01 µM
GI50 (U251 CNS): < 0.0001 µM
TGI (U251 CNS): 0.0186 µM and 0.0571 µM
GI50 (KM12 colon): 0.0136 µM and 0.0192 µM
TGI (KM12 colon): 0.182 µM and 1.27 µM
GI50 (NCI-H226 lung): < 0.0001 µM
TGI (NCI-H226 lung): 0.109 µM and 0.0279 µM
GI50 (M14 melanoma): < 0.0001 µM
TGI (M14 melanoma): 0.0139 µM
GI50 (MOLT-4 leukemia): < 0.0001 µM
TGI (MOLT-4 leukemia): 0.146 µM

— PubChem BioAssay (NCI)
